Measured values from patent US20250171452A1 (Viscient Bio, Inc., priority 2022, published 2025).
Like-named read-outs stand apart in the source and are kept apart here.

Tests used:
IDO2 = IDO2 (Homo sapiens (Human), UniProt Q6ZQW0); assay: Cellular IDO2 assay, doxycycline and 5-methoxy-L-tryptophan medium, colorimetric; type: cell-based
[1] = biological target: Indoleamine 2,3-dioxygenase 1 (IDO1) (Homo sapiens (Human), UniProt P14902); assay: Cellular IDO1 assay: kynurenine production in IFN-γ-stimulated HeLa cells, colorimetric
[2] = cellular level, 72 h incubation, signal at 480 nm

Sequence of IDO2 (Q6ZQW0 whole entry, species assumed): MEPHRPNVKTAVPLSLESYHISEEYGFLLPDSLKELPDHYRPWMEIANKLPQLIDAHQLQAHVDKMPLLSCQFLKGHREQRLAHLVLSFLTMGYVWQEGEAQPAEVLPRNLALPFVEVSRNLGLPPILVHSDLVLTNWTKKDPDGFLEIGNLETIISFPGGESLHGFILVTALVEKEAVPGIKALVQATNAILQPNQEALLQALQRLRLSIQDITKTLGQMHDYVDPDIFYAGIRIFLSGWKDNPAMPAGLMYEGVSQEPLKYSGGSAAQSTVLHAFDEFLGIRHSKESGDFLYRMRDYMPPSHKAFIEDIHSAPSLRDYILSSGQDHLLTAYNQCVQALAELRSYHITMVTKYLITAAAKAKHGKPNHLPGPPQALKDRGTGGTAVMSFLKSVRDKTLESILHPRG
Sequence of Indoleamine 2,3-dioxygenase 1 (IDO1) (P14902 whole entry): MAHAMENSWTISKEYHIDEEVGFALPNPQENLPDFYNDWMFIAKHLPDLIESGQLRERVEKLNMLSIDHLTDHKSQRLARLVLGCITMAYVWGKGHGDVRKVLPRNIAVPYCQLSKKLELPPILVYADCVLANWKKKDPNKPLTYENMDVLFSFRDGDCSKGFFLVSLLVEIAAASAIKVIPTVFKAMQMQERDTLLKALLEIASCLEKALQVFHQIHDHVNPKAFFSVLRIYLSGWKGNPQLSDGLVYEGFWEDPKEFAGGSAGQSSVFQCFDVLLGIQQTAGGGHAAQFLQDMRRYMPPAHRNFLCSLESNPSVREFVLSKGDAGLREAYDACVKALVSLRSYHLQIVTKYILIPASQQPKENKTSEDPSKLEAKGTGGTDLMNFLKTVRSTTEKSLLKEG

IC50 (IDO2; [2]) | IC50 [1] | SMILES | IC50 (IDO2)
50 to 500 nM | 50 to 500 nM | NC(=O)c1ccc2c(c1)C(=O)c1nc3cc(Cl)cc(Cl)c3c(=O)n1-2 [Compound 23, 1,3-Dichloro-6,12-dioxoindolo[2,1-b]quinazoline-8-carboxamide] | –
50 to 500 nM | < 50 nM | Cc1ccc2c(=O)n3c(nc2c1)C(=O)c1cc([N+](=O)[O-])ccc1-3 [Compound 1, 3-Methyl-8-nitroindolo[2,1-b]quinazoline-6,12-dione] | –
50 to 500 nM | 50 to 500 nM | CN1CCN(Cc2ccc3c(=O)n4c(nc3c2)C(=O)c2cc(F)ccc2-4)CC1 [Compound 15, 8-Fluoro-3-((4-methylpiperazin-1-yl)methyl)indolo[2,1-b]quinazoline-6,12-dione] | –
50 to 500 nM | > 500 nM | O=C1c2cc([N+](=O)[O-])ccc2-n2c1nc1c(Br)cc(Cl)cc1c2=O [Compound 47, 4-Bromo-2-chloro-8-nitroindolo[2,1-b]quinazoline-6,12-dione] | –
50 to 500 nM | > 500 nM | CC(C)(C)OC(=O)N1CCN(C(=O)c2ccc3c(c2)C(=O)c2nc4cc(Cl)cc(Cl)c4c(=O)n2-3)CC1 [Compound 26, tert-Butyl 4-(1,3-dichloro-6,12-dioxo-6,12-dihydroindolo[2,1-b]quinazoline-8-carbonyl)piperazine-1-carboxylate] | –
< 50 nM | < 50 nM | N#Cc1ccc2c(c1)C(=O)c1nc3cc(Cl)ccc3c(=O)n1-2 [Compound 3, 3-Chloro-6,12-dioxo-6,12-dihydroindolo[2,1-b]quinazoline-8-carbonitrile] | –
< 50 nM | 50 to 500 nM | O=C1c2cc([N+](=O)[O-])ccc2-n2c1nc1c(Br)c(F)ccc1c2=O [Compound 35] | –
< 50 nM | 50 to 500 nM | O=C1c2cc([N+](=O)[O-])ccc2-n2c1nc1c(F)cccc1c2=O [Compound 41, 4-Fluoro-8-nitroindolo[2,1-b]quinazoline-6,12-dione] | –
50 to 500 nM | 50 to 500 nM | CNC(=O)c1ccc2c(c1)C(=O)c1nc3cc(Cl)cc(Cl)c3c(=O)n1-2 [Compound 20, 1,3-Dichloro-N-methyl-6,12-dioxo-6,12-dihydroindolo[2,1-b]quinazoline-8-carboxamide] | –
< 50 nM | < 50 nM | Cc1cc(C)c2nc3n(c(=O)c2c1)-c1ccc([N+](=O)[O-])cc1C3=O [Compound 48, 2,4-Dimethyl-8-nitroindolo[2,1-b]quinazoline-6,12-dione] | –
< 50 nM | < 50 nM | O=C1c2cc(S(=O)(=O)Cc3ccccc3)ccc2-n2c1nc1cc(F)ccc1c2=O [Compound 33, 8-(Benzylsulfonyl)-3-fluoroindolo[2,1-b]quinazoline-6,12-dione] | –
< 50 nM | 50 to 500 nM | N#Cc1ccc2c(c1)C(O)C1Nc3cc(F)ccc3C(=O)N21 (stereo not shown) [Compound 31, 3-Fluoro-6-hydroxy-12-oxo-5,5a,6,12-tetrahydroindolo[2,1-b]quinazoline-8-carbonitrile] | –
50 to 500 nM | > 500 nM | O=c1c2c(F)cc(F)cc2nc2n1-c1ccc([N+](=O)[O-])cc1C2 [Compound 34, 1,3-Difluoro-8-nitroindolo[2,1-b]quinazolin-12(6H)-one] | –
50 to 500 nM | > 500 nM | O=C1c2cc(Br)ccc2-n2c1nc1cc(F)ccc1c2=O [Compound 18, 8-Bromo-3-fluoroindolo[2,1-b]quinazoline-6,12-dione] | –
< 50 nM | 50 to 500 nM | O=C1c2cc([N+](=O)[O-])ccc2-n2c1nc1c(Br)cccc1c2=O [Compound 43, 4-Bromo-8-nitroindolo[2,1-b]quinazoline-6,12-dione] | –
> 500 nM | > 500 nM | NCCNC(=O)c1ccc2c(c1)C(=O)c1nc3cc(Cl)cc(Cl)c3c(=O)n1-2 [Compound 19, N-(2-Aminoethyl)-1,3-dichloro-6,12-dioxo-6,12-dihydroindolo[2,1-b]quinazoline-8-carboxamide] | –
> 500 nM | > 500 nM | NS(=O)(=O)NCCNC(=O)c1ccc2c(c1)C(=O)c1nc3cc(Cl)cc(Cl)c3c(=O)n1-2 [Compound 29, 1,3-Dichloro-6,12-dioxo-N-(2-(sulfamoylamino)ethyl)-6,12-dihydroindolo[2,1-b]quinazoline-8-carboxamide] | –
< 50 nM | 50 to 500 nM | O=C1c2cc(F)ccc2-n2c1nc1c(Br)cccc1c2=O [Compound 44, 4-Bromo-8-fluoroindolo[2,1-b]quinazoline-6,12-dione] | –
< 50 nM | 50 to 500 nM | CC(C)(C)OC(=O)Nc1ccc2c(=O)n3c(nc2c1)C(=O)c1cc([N+](=O)[O-])ccc1-3 [Compound 17, tert-Butyl (8-nitro-6,12-dioxo-6,12-dihydroindolo[2,1-b]quinazolin-3-yl)carbamate] | –
50 to 500 nM | 50 to 500 nM | O=C1c2cc([N+](=O)[O-])ccc2-n2c1nc1c(Br)cc(F)cc1c2=O [Compound 45, 4-Bromo-2-fluoro-8-nitroindolo[2,1-b]quinazoline-6,12-dione] | –
> 500 nM | > 500 nM | NS(=O)(=O)NCCNC(=O)c1ccc2c(c1)C(=O)c1nc3cc(Cl)ccc3c(=O)n1-2 [Compound 13, 3-Chloro-6,12-dioxo-N-(2-(sulfamoylamino)ethyl)-6,12-dihydroindolo[2,1-b]quinazoline-8-carboxamide] | –
> 500 nM | > 500 nM | O=C(O)c1ccc2c(c1)C(=O)c1nc3cc(Cl)cc(Cl)c3c(=O)n1-2 [Compound 22, 1,3-Dichloro-6,12-dioxoindolo[2,1-b]quinazoline-8-carboxylic Acid] | –

IC50 (IDO2; [2]) | IC50 [1] | SMILES | IC50 (IDO2)
< 50 nM | < 50 nM | N#Cc1ccc2c(c1)C(=O)c1nc3cc(F)ccc3c(=O)n1-2 [Compound 12, 3-Fluoro-6,12-dioxo-6,12-dihydroindolo[2,1-b]quinazoline-8-carbonitrile] | –
< 50 nM | 50 to 500 nM | Nc1ccc2c(=O)n3c(nc2c1)C(=O)c1cc([N+](=O)[O-])ccc1-3 [Compound 16, 3-Amino-8-nitroindolo[2,1-b]quinazoline-6,12-dione] | –
< 50 nM | 50 to 500 nM | O=c1c2c(Cl)cccc2[nH]c2cc3cc([N+](=O)[O-])ccc3n12 [Compound 39, 1-Chloro-8-nitroindolo[2,1-b]quinazolin-12(5H)-one] | –
50 to 500 nM | 50 to 500 nM | Cc1ccc(F)c2c(=O)n3c(nc12)C(=O)c1cc([N+](=O)[O-])ccc1-3 [Compound 40] | –
< 50 nM | < 50 nM | Cc1cccc2c(=O)n3c(nc12)C(=O)c1cc([N+](=O)[O-])ccc1-3 [Compound 42, 4-Methyl-8-nitroindolo[2,1-b]quinazoline-6,12-dione] | –
< 50 nM | – | N#Cc1ccc2c(c1)/C(=N\O)c1nc3cc(Cl)ccc3c(=O)n1-2 [Compound 84] | –
< 50 nM | – | CN(C)Cc1ccc2nc3n(c(=O)c2c1)-c1ccc(S(=O)(=O)Cc2ccccc2)cc1C3=O [Compound 127] | –
< 50 nM | – | N#Cc1ccc2c(c1)C(=O)c1nc3c(Oc4ccc(F)cc4)cccc3c(=O)n1-2 [Compound 71] | –
50 to 500 nM | – | N#Cc1ccc2c(c1)C(=O)c1nc3cc(F)cc(F)c3c(=O)n1-2 [Compound 114] | –
< 50 nM | – | CN(C)Cc1ccc2nc3n(c(=O)c2c1)-c1ccc(Br)cc1C3=O [Compound 128] | –
< 50 nM | – | CN(C)S(=O)(=O)c1ccc2c(c1)C(=O)c1nc3cc(F)ccc3c(=O)n1-2 [Compound 79] | –
< 50 nM | – | [2H]C([2H])(Nc1ccc2c(=O)n3c(nc2c1)C(=O)c1cc(C#N)ccc1-3)c1ccc(F)cc1 [Compound 70] | –
< 50 nM | – | CNS(=O)(=O)c1ccc2c(c1)C(=O)c1nc3cc(F)ccc3c(=O)n1-2 [Compound 82] | –
50 to 500 nM | – | CON=C1c2cc(F)ccc2-n2c1nc1cc(CNC(=O)OCc3ccccc3)ccc1c2=O (stereo in doubt) [Compound 93, benzyl (Z)-((8-fluoro-6-(methoxyimino)-12-oxo-6,12-dihydroindolo[2,1-b]quinazolin-3-yl)methyl)carbamate] | –
< 50 nM | – | COC(=O)c1ccc2nc3n(c(=O)c2c1)-c1ccc(F)cc1C3=O [Compound 150, methyl 8-fluoro-6,12-dioxo-6,12-dihydroindolo[2,1-b]quinazoline-2-carboxylate] | –
< 50 nM | – | CC(=O)NCc1ccc2nc3n(c(=O)c2c1)-c1ccc(F)cc1C3=O [Compound 142, N-((8-fluoro-6,12-dioxo-6,12-dihydroindolo[2,1-b]quinazolin-2-yl)methyl)acetamide] | –
> 500 nM | – | CN(C)Cc1ccc2nc3n(c(=O)c2c1)-c1ccc(SCc2ccccc2)cc1C3=O [Compound 130] | –
50 to 500 nM | – | O=C1c2cc(F)ccc2-n2c1nc1c(Nc3ccc(F)cc3)cccc1c2=O [Compound 125] | –
< 50 nM | – | N#Cc1ccc2c(c1)C(=O)c1nc3ccc(CN4CCOCC4)cc3c(=O)n1-2 [Compound 136, 2-(morpholinomethyl)-6,12-dioxo-6,12-dihydroindolo[2,1-b]quinazoline-8-carbonitrile] | –
50 to 500 nM | – | O=C1c2cc(F)ccc2-n2c1nc1c(NCc3ccc(F)cc3)cccc1c2=O [Compound 115, 8-Fluoro-4-((4-fluorobenzyl)amino)indolo[2,1-b]quinazoline-6,12-dione] | –
< 50 nM | – | O=C1c2cc(F)ccc2-n2c1nc1ccc(-c3c[nH]cn3)cc1c2=O [Compound 151, 8-fluoro-2-(1H-imidazol-4-yl)indolo[2,1-b]quinazoline-6,12-dione] | –
50 to 500 nM | – | CS(=O)(=O)c1ccc2c(c1)C(=O)c1nc3cc(F)cc(F)c3c(=O)n1-2 [Compound 106] | –

SMILES | IC50 (IDO2; [2]) | IC50 [1] | IC50 (IDO2)
O=C1c2cc([N+](=O)[O-])ccc2-n2c1nc1cc(F)cc(F)c1c2=O [Compound 11, 1,3-Difluoro-8-nitroindolo[2,1-b]quinazoline-6,12-dione] | – | 50 to 500 nM | < 50 nM
O=C1c2cc([N+](=O)[O-])ccc2-n2c1nc1c(Cl)cccc1c2=O [Compound 36, 4-Chloro-8-nitroindolo[2,1-b]quinazoline-6,12-dione] | < 50 nM | 50 to 500 nM | –
COc1cc2c(=O)n3c(nc2cn1)C(=O)c1cc([N+](=O)[O-])ccc1-3 [Compound 58, 3-Methoxy-9-nitropyrido[3′,4′:4,5]pyrimido[1,2-a]indole-5,11-dione] | 50 to 500 nM | – | –
